Measured values from US7649016B2, “Antitumor medicine” (Nihon Starch Co., Ltd., priority 2003, dated 2010).

Assays:
[1] = system: B16 melanoma cells; assay: Cell growth inhibition, number of living cells by crystal violet staining; type: cell-based, mouse; conditions: 0.70 mM final concentration, one week culture
Procedure: After B16 melanoma cells having multiplied on a 6-well plate were fixed by 2% glutaraldehyde, they were stained with 4% crystal violet, and stainable cells were determined to be living cells.
5×10^3 cells/ml of B16 melanoma cells (C57 BL/6 mouse melanoma cells) were disseminated into a 6-well plate. After the cells were attached to the bottom face (24 hours), an ascopyrone P solution (using DMSO as a solvent) was added in equal amounts to achieve a final concentration of 0 to 0.70 mM in the culture solutions. After the cells were cultured at 37° C. and a CO2 concentration of 5% for one week, the number of living cells was counted.

[2] = system: THP-1 (promyelocytic leukemia cells); assay: Percentage of dead cells by PI staining/FACS; type: cell-based, human
Procedure: (§1) Adhesion cancer cell lines C57 BL/6 mouse melanoma cell lines (B16 melanoma), human lung adenocarcinoma cell lines (A549), human keratinocyte derived tumor-like cell lines (HaCaT) and human cervical cancer cell lines (Hela) were cultured at 37° C. and a CO2 concentration of 5% in DMEM media having 10% FCS (fetal calf serum) and 2% penicillin/streptomycin added thereto. Floating tumor cells THP-1 (promyelocytic leukemia cell lines) were cultured at 37° C. and a CO2 concentration of 5% in an RPMI 1640 medium containing 10% FCS and 2% penicillin/streptomycin.
(§2) The cell culture media were stimulated by ascopyrone P solutions (prepared by dissolving ascopyrone P in dimethyl sulfoxide (DMSO)) of various concentrations and cultured for a predetermined time. Thereafter, cells were collected in a floating state by use of trypsin. Then, the cells were fixed by 70% ethanol at 4° C. for 30 minutes and then stained with a 50 μg/ml propidium iodine (PI) solution. […]
(§3) In the examination, in addition to the B16 melanoma cells, 4 types of human cancer cell lines (THP-1: promyelocytic leukemia, HeLa: cervical cancer, A549: alveolar cell carcinoma, HaCaT: cutaneous cancer model cells) were examined for the proportion of dead cells induced by stimulation of ascopyrone P. To the cancer cell culture solutions, ascopyrone P was added to 1.4 mM, and the percentages of dead cells after 48 hours were determined.

[3] = system: HeLa (human cervical cancer cells); assay: Percentage of dead cells and cell cycle by PI staining/FACS; type: cell-based; conditions: 1.4 mM
Procedure: as §1
(§4) The cell culture media were stimulated by ascopyrone P solutions (prepared by dissolving ascopyrone P in dimethyl sulfoxide (DMSO)) of various concentrations and cultured for a predetermined time. Thereafter, cells were collected in a floating state by use of trypsin. Then, the cells were fixed by 70% ethanol at 4° C. for 30 minutes and then stained with a 50 μg/ml propidium iodine (PI) solution. After 30 minutes, DNA histograms were prepared by use of an FACS to examine cell death percentages and cell cycles.
as §3
Therefore, when ascopyrone P is given to a living body as an antitumor medicine, it is expected that it specifically exerts a cell killing effect only on tumor cells without affecting normal cells most of which are conceived in the G0/1 period of the cell cycle.

[4] = system: A549 (human alveolar cell carcinoma); assay: Percentage of dead cells by PI staining/FACS; DNA fragmentation; type: cell-based
Procedure: as §1, §2, §3

[5] = system: HaCaT (human keratinocyte derived tumor-like cells); assay: Percentage of dead cells by PI staining/FACS; DNA fragmentation; FCS 10% vs FCS 1%; type: cell-based; conditions: 1.4 mM
Procedure: as §1, §4, §3
It is known that although HaCaT cells have characteristics of tumor cells in the presence of 10% FCS, they have characteristics close to those of normal cells in the presence of low-concentration FCS (1% or lower). By taking advantage of this characteristic, the influence of ascopyrone P on normal cells was examined.

[6] = system: B16 melanoma (C57 BL/6 mouse melanoma cells); assay: Percentage of dead cells by PI staining/FACS; type: cell-based; conditions: 1.4 mM, after 48 hours
Procedure: as §1, §2, §3

[7] = system: B16 melanoma cells in C57 BL/6 mice; assay: Cancerous peritonitis model, survival of mice with B16 melanoma cells in the abdominal cavity; type: in vivo, mouse
Procedure: B16 melanoma cells (5×10^6 cells) were disseminated in the abdominal cavities of C57 BL/6 mice, PBS (phosphate buffer) and an ascopyrone P solution were then administered (dosage: 200 mg/kg) into the abdominal cavities every day from the 15th day, and the survival rates were examined (cancerous peritonitis model). It was confirmed that, in this experimental system, when the B16 melanoma cells were disseminated in the abdominal cavities of the mice in advance, the mice died from the 14th day or later when nothing or PBS was applied. The results of examining the life extending effect of ascopyrone P on terminal cancer models by use of the present experimental system are shown in FIG. 8. […] This indicates the antitumor effect in vivo of ascopyrone P.
As in Example 1, B16 melanoma cells (5×10^6 cells) were disseminated in the abdominal cavities of C57 BL/6 mice, and PBS and 1,5-D-anhydrofructose were administered (dosage: 200 mg/kg) into the abdominal cavities every day from the 2nd day. The average survival days after the tumor cells were disseminated were 19 days for those given 1,5-D-anhydrofructose and 14 days for those given PBS as controls.

[8] = system: B16 melanoma cells in C57 BL/6 mice; assay: Subcutaneous B16 melanoma tumor volume and metastasis; type: in vivo, mouse; conditions: 25 mg/kg subcutaneously into tumor spots every other day, 3rd to 13th day
Procedure: Next, B16 melanoma cells (1×10^5 cells) were subcutaneously disseminated in the backs of C57 BL/6 mice, PBS and ascopyrone P were subcutaneously injected into tumor spots (using a solution of ascopyrone P dissolved in PBS in a dosage of 25 mg/kg) every other day from the 3rd day to the 13th day, and the antitumor effects were evaluated based on the volumes (long diameter×short diameter^2×0.52) of the tumors (FIG. 10). […] In general, it is said in clinical practice that an antitumor medicine with a lower tumor growing rate provides better prognosis.

[9] = system: integrin (THP-1 cell adhesion); assay: Number of adhered cells after phorbol ester (PMA) stimulation, function of integrin; type: cell-based, human; conditions: THP-1, 12.3 mM, one hour
Procedure: A 1,5-D-anhydrofructose solution (prepared by dissolving 1,5-D-anhydrofructose in DMSO) was added to the THP-1 cell culture medium, and the resulting medium was then stimulated by phorbol ester (PMA; phorbol myristate acetate). After the medium was cultured at 37° C. and a CO2 concentration of 5% for one hour, adhered cells were stained with a Giemsa staining method.
It is known that when leukemia cell lines are stimulated by phorbol ester (PMA), activation of adhesion molecule integrin is observed, and as a result, production of active oxygen, enhancement of cell adhesion and cell infiltration are induced as cell phenomena. Thus, THP-1 cell lines were cultured in the presence of 1,5-D-anhydrofructose, and the function of integrin was evaluated by use of the number of adherent cells after stimulation of the lines by phorbol ester as an index.

SMILES: O=C1CC(CO)OC=C1O (stereo not drawn) [ascopyrone P, 2-hydroxymethyl-5-hydroxy-2,3-dihydro-4H-pyran-4-one]
- number of living cells (control DMSO = 100%) [1]: ≤ 50%
- cell death ([2]; THP-1, 0.35 mM, within 48 hours): induced cell death
- Percentage of Dead Cells (%) ([2]; THP-1, 1.4 mM, after 48 hours): 33.3 ± 0.7%
- Percentage of Dead Cells (%) ([3]; after 48 hours): 8.3 ± 2.0%
- G2/M period cell population ([3]; FCS 10%, 24 hours): significant decrease
- S-period cell population ([3]; FCS 10%, 24 hours): significant increase
- cell death ([3]; FCS 10%, 48 hours): about 10%
- Percentage of Dead Cells (%) ([4]; A549, 1.4 mM, after 48 hours): 48.6 ± 3.8%
- apoptosis-specific DNA fragmentation ([4]; A549 cells): the same result was also obtained
- apoptosis-specific DNA fragmentation ([5]; 48 hours, agarose gel electrophoresis): apoptosis-specific DNA fragmentation was observed
- Percentage of Dead Cells (%) ([5]; after 48 hours): 27.2 ± 3.1%
- cell death ([5]; FCS 1% (normal-cell-like)): almost no cell death was observed
- cell death ([5]; FCS 10% (tumor-like growth), within 48 hours): about 30%
- Percentage of Dead Cells (%) [6]: 31.9 ± 3.6%
- proportion of mice with 3 times or longer life time expansion than controls (PBS) ([7]; 200 mg/kg into the abdominal cavity every day from the 15th day): 40%
- average survival days ([7]; 200 mg/kg into the abdominal cavity every day from the 15th day, PBS controls 4 days): 8 days
- metastasis of tumors at dissection [8]: hardly observed
- tumor volume versus PBS ([8]; from the 7th day and later): significantly smaller tumor volume
- tumor volume versus PBS ([8]; until the 7th day): no difference

SMILES: O=C1CO[C@H](CO)[C@@H](O)[C@@H]1O [1,5-D-anhydrofructose]
- cell adhesion by phorbol ester (remaining) [9]: about 25%
- average survival days after the tumor cells were disseminated ([7]; 200 mg/kg into the abdominal cavity every day from the 2nd day, PBS controls 14 days): 19 days
